Tested on: 233499-124-R-J3-PDC complex spheroid growth
Test: Anticancer human tumor 233499-124-R-J3-PDC patient-derived colon adenocarcinoma cell line growth inhibition [AhR]
Conditions: for IC50: curve of first compound; for viability, T/C: stronger effect = lower value
Summary of the method: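 Complex tumor spheroids co-cultured with HUVEC and human MSC stroma; AhR antagonists tested in combination with standard-of-care and investigational agents. Top concentration at or near clinical Cmax (else 10 microM), half-log dilutions; growth expressed as percent test/control.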

[1] = second compound 0.1 µM, first compound 0.0316 µM
[2] = second compound 0.1 µM, first compound 0.1 µM
[3] = second compound 0.1 µM, first compound 0.316 µM
[4] = second compound 0.1 µM, first compound 1 µM
[5] = second compound 0.1 µM, first compound 3.16 µM
[6] = second compound 0.1 µM, first compound 10 µM
[7] = second compound 0.316 µM, first compound 0.0316 µM
[8] = second compound 0.316 µM, first compound 0.1 µM
[9] = second compound 0.316 µM, first compound 0.316 µM
[10] = second compound 0.316 µM, first compound 1 µM
[11] = second compound 0.316 µM, first compound 3.16 µM
[12] = second compound 0.316 µM, first compound 10 µM
[13] = second compound 1 µM, first compound 0.0316 µM
[14] = second compound 1 µM, first compound 0.1 µM
[15] = second compound 1 µM, first compound 0.316 µM
[16] = second compound 1 µM, first compound 1 µM
[17] = second compound 1 µM, first compound 3.16 µM
[18] = second compound 1 µM, first compound 10 µM
[19] = second compound 3.16 µM, first compound 0.0316 µM
[20] = second compound 3.16 µM, first compound 0.1 µM
[21] = second compound 3.16 µM, first compound 0.316 µM
[22] = second compound 3.16 µM, first compound 1 µM
[23] = second compound 3.16 µM, first compound 3.16 µM
[24] = second compound 3.16 µM, first compound 10 µM
[25] = second compound 10 µM, first compound 0.0316 µM
[26] = second compound 10 µM, first compound 0.1 µM
[27] = second compound 10 µM, first compound 0.316 µM
[28] = second compound 10 µM, first compound 1 µM
[29] = second compound 10 µM, first compound 3.16 µM
[30] = second compound 10 µM, first compound 10 µM
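Further: spheroids exposed to agents for seven days before reading.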

Compound	IC50 (second compound 0.1 µM)	IC50 (second compound 0.316 µM)	IC50 (second compound 1 µM)	IC50 (second compound 3.16 µM)	IC50 (second compound 10 µM)	viability, T/C [1]	viability, T/C [2]	viability, T/C [3]	viability, T/C [4]	viability, T/C [5]	viability, T/C [6]	viability, T/C [7]	viability, T/C [8]	viability, T/C [9]	viability, T/C [13]	viability, T/C [14]	viability, T/C [19]	viability, T/C [20]	viability, T/C [25]	viability, T/C [26]	also measured
COc1cc(Nc2ncc3c(n2)-c2ccc(Cl)cc2C(c2c(F)cccc2OC)=NC3)ccc1C(=O)O + CC(CO)NC(=O)c1cc(-c2ccc(Cl)cc2)nn(-c2cnn(C)c2)c1=O	> 10000 nM	> 10000 nM	> 10000 nM	> 10000 nM	> 10000 nM	75.4%	74.5%	81%	91.4%	84.6%	82.9%	75.6%	73.6%	86.3%	78.7%	76.9%	57.9%	67.4%	58.8%	62.8%	viability, T/C [10]: 77.2%; viability, T/C [11]: 62.8%; viability, T/C [12]: 94%; viability, T/C [15]: 96%; viability, T/C [16]: 72.5%; viability, T/C [17]: 87.7%; viability, T/C [18]: 74%; viability, T/C [21]: 86.3%; viability, T/C [22]: 89.1%; viability, T/C [23]: 84.7%; viability, T/C [24]: 84.9%; viability, T/C [27]: 73.8%; viability, T/C [28]: 65.4%; viability, T/C [29]: 57.9%; viability, T/C [30]: 59.2%
Cn1ncnc1C1c2n[nH]c(=O)c3cc(F)cc(c23)NC1c1ccc(F)cc1 (stereo not given) + CC(CO)NC(=O)c1cc(-c2ccc(Cl)cc2)nn(-c2cnn(C)c2)c1=O	> 100 nM	> 100 nM	> 100 nM	> 100 nM	> 100 nM	86.7%	104%	–	–	–	–	108%	87.5%	–	77.6%	101%	91.2%	87.6%	87%	78.7%	viability, T/C (second compound 0.1 µM, first compound 0.000316 µM): 97.1%; viability, T/C (second compound 0.1 µM, first compound 0.001 µM): 102%; viability, T/C (second compound 0.1 µM, first compound 0.00316 µM): 101%; viability, T/C (second compound 0.1 µM, first compound 0.01 µM): 106%; viability, T/C (second compound 0.316 µM, first compound 0.000316 µM): 90.6%; viability, T/C (second compound 0.316 µM, first compound 0.001 µM): 104%; viability, T/C (second compound 0.316 µM, first compound 0.00316 µM): 88.6%; viability, T/C (second compound 0.316 µM, first compound 0.01 µM): 92.6%; viability, T/C (second compound 1 µM, first compound 0.000316 µM): 93.6%; viability, T/C (second compound 1 µM, first compound 0.001 µM): 103%; viability, T/C (second compound 1 µM, first compound 0.00316 µM): 92.2%; viability, T/C (second compound 1 µM, first compound 0.01 µM): 109%; viability, T/C (second compound 3.16 µM, first compound 0.000316 µM): 97%; viability, T/C (second compound 3.16 µM, first compound 0.001 µM): 103%; viability, T/C (second compound 3.16 µM, first compound 0.00316 µM): 87.9%; viability, T/C (second compound 3.16 µM, first compound 0.01 µM): 98.9%; viability, T/C (second compound 10 µM, first compound 0.000316 µM): 83.2%; viability, T/C (second compound 10 µM, first compound 0.001 µM): 80.8%; viability, T/C (second compound 10 µM, first compound 0.00316 µM): 90.2%; viability, T/C (second compound 10 µM, first compound 0.01 µM): 83%
NS(=O)(=O)OCC1CC(n2ccc3c(NC4CCc5ccccc54)ncnc32)CC1O (stereo not given) + CC(CO)NC(=O)c1cc(-c2ccc(Cl)cc2)nn(-c2cnn(C)c2)c1=O	229 nM	196 nM	214 nM	194 nM	112 nM	100%	81.9%	38.2%	6.95%	3.58%	2.89%	101%	76.1%	32.2%	97.3%	83.6%	97.8%	85.1%	89.6%	54%	viability, T/C [10]: 4.48%; viability, T/C [11]: 2.85%; viability, T/C [12]: 1.79%; viability, T/C [15]: 32.7%; viability, T/C [16]: 7.56%; viability, T/C [17]: 2.89%; viability, T/C [18]: 2.21%; viability, T/C [21]: 23.9%; viability, T/C [22]: 7.17%; viability, T/C [23]: 4.49%; viability, T/C [24]: 4.6%; viability, T/C [27]: 12.6%; viability, T/C [28]: 4.19%; viability, T/C [29]: 4.04%; viability, T/C [30]: 2.93%
